We go through 83 compounds from the COVID Moonshot data (paper PMC7615835).

“And” between values parts separate entries of the source, which are not always exact repeats. Equal entries are not always repeated.

In this test the target is SARS-CoV-2 Main Protease (SARS-CoV-2) (UniProt P0DTD1).
For orientation: IC50 means the concentration that inhibits the measured activity by half. For `O=C(Cc1cc(Cl)cc(Nc2c(Cl)cc(Cl)cc2Br)c1)Nc1cncc2ccccc12`, the half-inhibitory concentration (IC50) was found to be 1.63 µM. As for `O=C(NCCc1cccc(F)c1)C(c1cccnc1)N(C(=O)c1cocn1)c1ccccc1` (stereo not drawn), the figure is 89.2 µM; as for `c1ccc(-c2cc(Sc3nnc(-c4cccs4)o3)n3ncnc3n2)cc1`, 0.221 µM. The value for `CC(NC(=O)CCl)c1cc(Cl)cc(-c2ccc(S(N)(=O)=O)cc2)c1` (stereo not drawn) was 0.466 µM. The value for `CC(C)c1cc(N(C(=O)c2ccco2)C(C(=O)NCCc2cccc(F)c2)c2cccnc2)ccc1C(F)(F)F` (stereo not drawn) was above 99.5 µM; that for `O=C(CN(C(=O)Cn1nnc2ccccc21)c1ccc(-c2ccccc2)cc1)N1CCNCC1` was above 99.5 µM; that for `CCS(=O)(=O)Nc1ccc2c(NC(=O)C3CN(S(=O)(=O)CC4(C#N)CC4)Cc4ccc(Cl)cc43)cncc2c1` (stereo not drawn) was below 0.05 µM. In the case of `COc1ccc2c(N)nn(C(=O)Cc3cccc(Cl)c3)c2c1`, the IC50 was above 99.5 µM.

Turning to `CCNC(=O)CN1CC2(CCN(c3cncc4ccccc34)C2=O)c2cc(Cl)ccc2S1(=O)=O` (stereo not drawn), the concentration for half-maximal inhibition (IC50) turned out to be 0.275 µM. For the compound `COc1ccccc1OCCNC(=O)c1cc(=O)[nH]c2cccc(C)c12`, the IC50 stood at 10.6 µM. Compound `O=C(c1cc(=O)[nH]c2ccccc12)N1CCN(Cc2cccc(C(F)(F)F)c2)CC1` yielded an IC50 of 34.2 µM. For `Nc1ccc2[nH]c(C(=O)N(C(=O)c3ccco3)C(C(=O)NCCc3cccc(F)c3)c3cccnc3)cc2c1` (stereo not drawn), the IC50 is above 99.5 µM. As for `N#CC1(CS(=O)(=O)N2Cc3ccc(Cl)cc3[C@@H](C(=O)Nc3cncc4ccccc34)C2)CCOCC1` (stereo in doubt), the figure is 15.2 µM; as for `O=c1c(O[C@@H]2O[C@H](CO)[C@H](O)[C@H](O)[C@H]2O)c(-c2ccc(O)c(O)c2)oc2cc(O)cc(O)c12` (stereo in doubt), above 99.5 µM. `O=C(CN1CC(C(=O)Nc2cncc3cc(F)ccc23)c2cc(Cl)ccc2C1=O)NC1COC1` (stereo not drawn): the IC50 came out at 1.01 µM. As for `COCc1ccc(N(C(=O)c2cnc[nH]2)C(C(=O)NCCc2cccc(F)c2)c2cccnc2)cc1` (stereo not drawn), the figure is 62.9 µM; as for `COc1cc(C)ccc1CN(C(=O)c1cocn1)C(C(=O)NCCc1cccc(F)c1)c1cccnc1` (stereo not drawn), above 99.5 µM; as for `CS(=O)(=O)Nc1ccc2cncc(NC(=O)C3CN(S(=O)(=O)CC4(C#N)CC4)Cc4ccc(Cl)cc43)c2c1` (stereo not drawn), 0.267 µM. The value for `O=C(CN(C(=O)Cn1ccnn1)c1ccc(-c2ccccn2)cc1)N1CCNCC1` was above 99.5 µM. The value for `O=C(Nc1cncn1-c1cccnc1)C1CCOc2ccc(Cl)cc21` (stereo not drawn) was above 99.5 µM; that for `CC(C)(C)c1ccc(N(C(=O)c2nnc(S)[nH]c2=O)C(C(=O)NCCc2cccc(F)c2)c2cccnc2)cc1` (stereo not drawn) was above 99.5 µM; that for `O=C(Cc1cc(Cl)cc(NC[C@@H](c2cccnc2)N2CCOCC2)c1)Nc1cncc2ccccc12` (stereo in doubt) was 2.58 µM. Regarding `O=C(Nc1cncc2ccccc12)C1(CCC2CC2)CCOc2ccc(Cl)cc21` (stereo not drawn), the IC50 stood at 40.7 µM. As for `O=C(Cc1cccc(Cl)c1)Nc1cccnc1`, the figure is 53.7 µM; as for `C=CC(=O)N(c1ccc(C(C)(C)C)cc1)C(C(=O)NCc1cccnc1)c1cccnc1` (stereo not drawn), 49.9 µM. The value for `O=C(Nc1ccc(F)cc1)[C@@H]1CN(C(=O)CCl)CCN1S(=O)(=O)c1ccsc1` (stereo in doubt) was 0.593 µM; that for `Cc1ccncc1N1CCC(c2cccc(Cl)c2)S1(=O)=O` (stereo not drawn) was 85 µM. Consider `COc1ccc2cncc(N3CCC4(CN(S(=O)(=O)CC5(C#N)CC5)Cc5ccc(Cl)cc54)C3=O)c2c1` (stereo not drawn), for which the IC50 turned out to be 0.215 µM. As for `O=C(Cc1cccc(Cl)c1)Nc1cncc2cc(OCC(F)(F)F)ccc12`, the figure is above 99.5 µM; as for `O=C(Cc1cc(Cl)cc(Nc2nc3cc(Cl)ccc3s2)c1)Nc1cncc2ccccc12`, 2.04 µM; as for `CC(C(=O)Nc1cncnc1)c1ccccc1` (stereo not drawn), above 99.5 µM. As for `O=C(CCl)N1CCCN(S(=O)(=O)c2ccc(F)cc2)CC1`, the IC50 stood at 44 µM. As for `Cc1ccc(Cl)cc1N1CCN(c2cc(Cl)cc(CC(=O)Nc3cncc4ccccc34)c2)CC1`, the figure is 3.37 µM; as for `CC(C)(C)NC(=O)CN1CC(C(=O)Nc2cncc3cc(F)ccc23)c2cc(Cl)ccc2C1=O` (stereo not drawn), 1.01 µM; as for `O=C(Cn1nnc2ccccc21)N(Cc1cccc(Cl)c1)c1ccc(N2CCCCC2)cc1`, 3.65 µM.

`CC(=O)N(CC(=O)Nc1ccc(F)c(Cl)c1)c1cccc(Cl)c1` had an IC50 above 99.5 µM. The value for `CC(C)(C)c1ccc(N(C(=O)c2cnco2)C(C(=O)NCCc2cccc(F)c2)c2cccnc2)cc1` (stereo not drawn) was 4.78 µM; that for `O=C(NCCc1cccc(F)c1)C(c1cccnc1)N(C(=O)c1cnc[nH]1)C1CCC2(CCO2)CC1` (stereo not drawn) was above 99 µM.

`O=C(C[C@]1(C(=O)Nc2cncc3ccccc23)CCOc2ccc(Cl)cc21)N1CCN(C2CCOC2)CC1` (stereo in doubt): the half-inhibitory concentration (IC50) came to 1.99 µM.

In the case of `CC(C)(C)c1ccc(N(C(=O)c2nc3ncc(CCO)cn3n2)C(C(=O)NCCc2cccc(F)c2)c2cccnc2)cc1` (stereo not drawn), the IC50 was above 99.5 µM. The compound `O=C(Cn1nnc2ccccc21)N(Cc1ccccc1)c1ccc(N2CCOCC2)cc1` returned an IC50 of 19.8 µM.

With `O=C(CN(C(=O)Cc1cccnc1)c1ccc(-c2ncccn2)cc1)N1CCNCC1`, the IC50 is above 99.5 µM. Compound `Cc1ccc2nnc(CNc3ccc4nnc(C(F)(F)F)n4n3)n2c1` showed an IC50 above 99.5 µM. For the compound `O=C(Nc1cncc2ccccc12)[C@H]1COc2ccc(Cl)cc2C1` (stereo in doubt), the IC50 was above 99.5 µM.

Turning to `CC(C)(C)c1ccc(N(C(=O)c2cc(=O)[nH][nH]2)C(C(=O)NCCc2cccc(F)c2)c2cccnc2)cc1` (stereo not drawn), the IC50 was 39.7 µM. This lies in the double-digit micromolar range. Regarding `COc1ccc(-c2ccsc2S(=O)(=O)N2CCN(C(=O)CCl)CC2)cc1`, the IC50 was 1.05 µM. The value for `Cc1csc2ncc(C(=O)N3C4CCC3c3ccccc34)c(=O)n12` was above 99.5 µM; that for `O=C(CCl)N1CCN(Cc2ccsc2)CC1` was 3.27 µM and 3.74 µM. As for `O=C(Cc1cc(Cl)cc(Nc2ccc(F)cc2I)c1)Nc1cncc2ccccc12`, the figure is 1.76 µM; as for `O=C(Nc1[nH]nc2cccc(F)c12)C1CCOc2ccc(Cl)cc21` (stereo not drawn), above 99.5 µM. The value for `O=C(Cc1cc(Cl)cc(NCC(c2ccccc2)c2ccccc2)c1)Nc1cncc2ccccc12` was 5.82 µM; that for `CC(NC(=O)COc1ccc(C(N)=O)cc1)(C(=O)Nc1cncc2ccccc12)c1ccc(Cl)c(Cl)c1` (stereo not drawn) was 10.5 µM and 14.3 µM; that for `Cc1ccn2ncc(C(=O)Nc3ccc4[nH]c(C)cc(=O)c4c3)c2n1` was above 99.5 µM.

`CC1(C(=O)Nc2cncc3cc(S(C)(=O)=O)ccc23)CNS(=O)(=O)c2ccc(Cl)cc21` (stereo not drawn) yielded an IC50 of 0.172 µM. The compound `O=C(NCCc1cccc(F)c1)C(c1cccnc1)N(Cc1ccccc1)C(=O)c1cnc[nH]1` (stereo not drawn) yielded a half-maximal inhibitory concentration (IC50) above 99 µM. The value for `Cc1nc(CN2Cc3ccc(Cl)cc3C(C(=O)Nc3cncc4ccc(F)cc34)C2)cs1` (stereo not drawn) was 1.12 µM. `CO[C@@H]1COC[C@H]1n1cc(C(=O)N(c2ccc(C(C)(C)C)cc2)C(C(=O)NCCc2cccc(F)c2)c2cccnc2)nn1` (stereo in doubt) returned a half-inhibitory concentration (IC50) above 99.5 µM. For the compound `O=C(Cc1cccc(Cl)c1)Nc1cncc2c1OCCC2`, the half-maximal inhibitory concentration (IC50) was 10.1 µM and 14 µM. As to `CC(NC(=O)c1nccc2cccnc12)c1ccc2[nH]c(=O)oc2c1` (stereo not drawn), the 50% inhibitory concentration (IC50) was above 99.5 µM.

On to `Cc1nc2cc(C(=O)NNc3nc4ccncc4s3)ccc2o1`, for which the 50% inhibitory concentration (IC50) was above 99.5 µM.

`O=C(Cc1cccc(Cl)c1)Nc1cccc2[nH]ncc12` came in with an IC50 above 99.5 µM.

The compound `CC(C)(C)c1ccc(N(C(=O)c2ccccc2)C(C(=O)NCCc2cccc(F)c2)c2cccnc2)cc1` (stereo not drawn) returned an IC50 above 99.5 µM. The value for `O=C1N(c2cncc3ccccc23)CCC12CN(S(=O)(=O)N1CCC1)Cc1ccc(Cl)cc12` (stereo not drawn) was 0.33 µM.

Turning to `N#CC1(CS(=O)(=O)N2Cc3ccc(Cl)cc3[C@H](C(=O)Nc3cncc4ccccc34)C2)CCS(=O)(=O)CC1` (stereo in doubt), the half-inhibitory concentration (IC50) was < 0.05 µM and 0.0814 µM and 0.0524 µM.

The compound `COC(=O)c1c(C)n(S(C)(=O)=O)c2ccc(N(C(=O)c3ccco3)S(C)(=O)=O)cc12` had an IC50 of 0.935 µM.

For `C=CC(=O)N(c1ccc(C(C)(C)C)cc1)C(C(=O)NCCc1cccc(F)c1)c1cncc(C)c1` (stereo not drawn), the IC50 was 11.6 µM. `O=C(NCc1ccccc1)[C@@H]1CN(C(=O)CCl)CCN1S(=O)(=O)c1ccsc1` (stereo in doubt) had an IC50 of 0.501 µM.

The compound `CN(C)C(=O)C[C@@]1(C(=O)Nc2cncc3ccccc23)CCOc2ccc(Cl)cc21` (stereo in doubt) yielded an IC50 of 20.5 µM. The value for `CCOC(=O)[C@H]1CCCN(c2cc(Cl)cc(CC(=O)Nc3cncc4ccccc34)c2)C1` (stereo in doubt) was 2.43 µM; that for `COc1cccc(C(NC(=O)Cc2cccc(Cl)c2)c2nc3ccccc3[nH]2)c1` (stereo not drawn) was above 99.5 µM; that for `N#CC1(CS(=O)(=O)N2Cc3ccc(Cl)cc3[C@H](C(=O)Nc3cncc4ccccc34)C2)CCOCC1` (stereo in doubt) was 0.06 µM and 0.0875 µM.

Take `CS(=O)(=O)c1ccc2c(NC(=O)C3CCS(=O)(=O)c4ccc(Cl)cc43)cncc2c1` (stereo not drawn): the half-inhibitory concentration (IC50) came to 0.744 µM. Regarding `CC(C)(C)c1ccc(N(C(=O)c2nc3cnccc3s2)C(C(=O)NCCc2cccc(F)c2)c2cccnc2)cc1` (stereo not drawn), the IC50 was above 99.5 µM. As for `COc1nccnc1C(C(=O)NCCc1cccc(F)c1)N(C(=O)c1cocn1)c1ccc(C(C)(C)C)cc1` (stereo not drawn), the figure is 94.9 µM; as for `O=C(NCCc1cccc(F)c1)C(c1cccnc1)N(C(=O)c1cocn1)c1ccc(-c2nnc3n2CCC3)cc1` (stereo not drawn), above 99.5 µM. As for `O=C(NCCc1cccc(F)c1)C(c1cccnc1)N(C(=O)c1cocn1)C1CCCCC1` (stereo not drawn), the figure is above 99.5 µM. Take `CC1CN(Cc2cccc(Cl)c2)CCN1C(=O)CCl` (stereo not drawn): the IC50 was found to be 7.73 µM. The value for `Cc1nc2ccc(NC(=O)NCc3ccc4[nH]c(=O)[nH]c4c3)cc2o1` was above 99.5 µM; that for `CC12CC3CC(C)(C1)CC(Nc1cc(Cl)cc(CC(=O)Nc4cncc5ccccc45)c1)(C3)C2` was 1.58 µM.

Regarding `COc1c(Cl)cccc1OCCNC(=O)c1cc(=O)[nH]c2ccccc12`, the IC50 was determined as 6.39 µM. As for `N#Cc1cc(Cl)cc(NC(=O)Nc2cccnc2)c1`, the concentration for half-maximal inhibition (IC50) was above 99 µM. As for `O=C(NCCc1cccc(F)c1)C(c1cccnc1)N(C(=O)c1cocn1)c1ccc(S(=O)(=O)C2CCCC2)cc1` (stereo not drawn), the figure is above 99.5 µM; as for `CC(C)c1ccncc1NC(=O)Cc1cccc(Cl)c1`, 19.5 µM.
